PubChem BioAssay AID330 (DTP/NCI, 2004)
Where “and” joins values, the source holds several entries; their conditions need not be identical. Identical values can stand only once. Inconclusive results and toxic doses are left out. Square brackets hold non-standard residues; d marks the D form. Peptide text beside a SMILES is read from it. ξ: configuration not given here. ξP = O=C(O)C1CCCN1

Test system: P388 leukemia ip, CD2F1 mice, survival T/C
Experiment: NCI In Vivo Anticancer Drug Screen. Data for tumor model P388 Leukemia (intraperitoneal) in CD2F1 (CDF1) mice
Settings: endpoint: median survival time, higher = longer survival
Method in brief: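 Mice carrying the transplanted tumor received test compound or vehicle. Survival was recorded in each group, and the value is the treated-group measurement divided by that of the vehicle-treated control group.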

[1] = dose: 50.0 mg/kg/injection, schedule: Q01DX005 (ip), vehicle: saline with Tween-80
[2] = dose: 100.0 mg/kg/injection, schedule: Q01DX005 (ip), vehicle: saline with Tween-80
[3] = dose: 200.0 mg/kg/injection, schedule: Q01DX005 (ip), vehicle: saline with Tween-80
[4] = dose: 50.0 mg/kg/injection, schedule: Q01DX009 (ip), vehicle: saline with Tween-80
[5] = dose: 100.0 mg/kg/injection, schedule: Q01DX009 (ip), vehicle: saline with Tween-80
[6] = dose: 200.0 mg/kg/injection, schedule: Q01DX009 (ip), vehicle: saline with Tween-80
[7] = dose: 60.0 mg/kg/injection, schedule: Q01DX005 (ip), vehicle: saline with Tween-80
[8] = dose: 120.0 mg/kg/injection, schedule: Q01DX005 (ip), vehicle: saline with Tween-80
[9] = dose: 240.0 mg/kg/injection, schedule: Q01DX005 (ip), vehicle: saline with Tween-80
[10] = dose: 50.0 mg/kg/injection, schedule: Q01DX005 (ip), vehicle: saline
[11] = dose: 100.0 mg/kg/injection, schedule: Q04DX003 (ip), vehicle: saline
[12] = dose: 200.0 mg/kg/injection, schedule: Q04DX003 (ip), vehicle: saline
[13] = dose: 400.0 mg/kg/injection, schedule: Q04DX003 (ip), vehicle: saline
[14] = dose: 50.0 mg/kg/injection, schedule: Q01DX009 (ip), vehicle: saline
[15] = dose: 200.0 mg/kg/injection, schedule: Q01DX009 (ip), vehicle: saline

Question: Which results are given for `O=C1C=Cc2ccccc2C1=C1SCCS1`?
Answer: T/C (dose: 50.0 mg/kg/injection, schedule: Q01DX009 (ip), vehicle: Klucel (hydroxypropylcellulose) (HPC)): 103 % of control; T/C (dose: 100.0 mg/kg/injection, schedule: Q01DX009 (ip), vehicle: Klucel (hydroxypropylcellulose) (HPC)): 93 % of control; T/C (dose: 200.0 mg/kg/injection, schedule: Q01DX009 (ip), vehicle: Klucel (hydroxypropylcellulose) (HPC)): 90 % of control

Question: For `CCCn1cc2c3c(cccc31)[C@H]1C[C@@H](C)CN(C)[C@@H]1C2`, which T/C (dose: 3.12 mg/kg/injection, schedule: Q01DX005 (ip), vehicle: saline with Tween-80) is on record?
Answer: 102 % of control and 107 % of control

Question: What about the T/C (dose: 6.25 mg/kg/injection, schedule: Q01DX005 (ip), vehicle: saline with Tween-80) of the same compound?
Answer: 100 % of control and 105 % of control and 107 % of control

Question: And the T/C (dose: 12.5 mg/kg/injection, schedule: Q01DX005 (ip), vehicle: saline with Tween-80)?
Answer: 102 % of control and 92 % of control and 93 % of control

Question: And the T/C (dose: 25.0 mg/kg/injection, schedule: Q01DX005 (ip), vehicle: saline with Tween-80)?
Answer: 98 % of control and 101 % of control

Question: And the T/C [1]?
Answer: 101 % of control

Question: And the T/C [2]?
Answer: 104 % of control

Question: What about the T/C [3] of the same compound?
Answer: 98 % of control

Question: With `C[n+]1ccccc1C1(O)CCCC1` as the compound, how does the T/C [4] read?
Answer: 94 % of control

Question: What about the T/C [5] of the same compound?
Answer: 100 % of control

Question: And the T/C [6]?
Answer: 100 % of control

Question: Which T/C (dose: 6.25 mg/kg/injection, schedule: Q01DX009 (ip), vehicle: saline + alcohol) does the source give for `CCN(CC)CCNc1ccc(O)c2sc3ccccc3c(=O)c12` here?
Answer: 94 % of control

Question: What about the T/C (dose: 12.5 mg/kg/injection, schedule: Q01DX009 (ip), vehicle: saline + alcohol) of the same compound?
Answer: 89 % of control

Question: What about the T/C (dose: 25.0 mg/kg/injection, schedule: Q01DX009 (ip), vehicle: saline + alcohol) of the same compound?
Answer: 99 % of control

Question: And the T/C (dose: 50.0 mg/kg/injection, schedule: Q01DX009 (ip), vehicle: saline + alcohol)?
Answer: 103 % of control

Question: Which results are given for `N=c1nccnn1O`?
Answer: T/C (dose: 100.0 mg/kg/injection, schedule: Q04DX003 (ip), vehicle: saline with Tween-80): 100 % of control; T/C (dose: 200.0 mg/kg/injection, schedule: Q04DX003 (ip), vehicle: saline with Tween-80): 99 % of control; T/C (dose: 400.0 mg/kg/injection, schedule: Q04DX003 (ip), vehicle: saline with Tween-80): 100 % of control

Question: `Cc1cc(N)c(C)c2ccncc12` was tested. Which T/C (dose: 0.63 mg/kg/injection, schedule: Q01DX009 (ip), vehicle: saline with Tween-80) did it give?
Answer: 100 % of control

Question: And the T/C (dose: 1.25 mg/kg/injection, schedule: Q01DX009 (ip), vehicle: saline with Tween-80)?
Answer: 90 % of control

Question: And the T/C (dose: 2.5 mg/kg/injection, schedule: Q04DX003 (ip), vehicle: saline with Tween-80)?
Answer: 104 % of control

Question: Which T/C [7] does the source give for `O=C(CSc1nc2ccccc2[nH]1)NCCO` here?
Answer: 98 % of control

Question: And the T/C [8]?
Answer: 97 % of control

Question: And the T/C [9]?
Answer: 100 % of control

Question: `NCC(=O)N1CCCC1C(=O)NCC(=O)NCC(=O)O` (stereo unspecified) (H-G[ξP]GG-OH) was tested. Which T/C [10] did it give?
Answer: 101 % of control

Question: And the T/C (dose: 100.0 mg/kg/injection, schedule: Q01DX005 (ip), vehicle: saline)?
Answer: 107 % of control

Question: And the T/C (dose: 100.0 mg/kg/injection, schedule: Q01DX005 (ip), vehicle: water)?
Answer: 105 % of control

Question: And the T/C (dose: 200.0 mg/kg/injection, schedule: Q01DX005 (ip), vehicle: saline)?
Answer: 99 % of control

Question: What about the T/C (dose: 200.0 mg/kg/injection, schedule: Q01DX005 (ip), vehicle: water) of the same compound?
Answer: 107 % of control

Question: And the T/C (dose: 400.0 mg/kg/injection, schedule: Q01DX005 (ip), vehicle: water)?
Answer: 110 % of control

Question: `CCOC(=O)NC` was tested. Which T/C [11] did it give?
Answer: 104 % of control

Question: What about the T/C [12] of the same compound?
Answer: 100 % of control

Question: What about the T/C [13] of the same compound?
Answer: 104 % of control

Question: With `C=CCNC(=S)NCCN(CCO)C(=S)NCC=C` as the compound, how does the T/C (dose: 12.5 mg/kg/injection, schedule: Q01DX009 (ip), vehicle: saline) read?
Answer: 105 % of control

Question: What about the T/C (dose: 25.0 mg/kg/injection, schedule: Q01DX009 (ip), vehicle: saline) of the same compound?
Answer: 104 % of control

Question: What about the T/C [14] of the same compound?
Answer: 104 % of control and 93 % of control

Question: And the T/C [15]?
Answer: 98 % of control

Question: For `CC(C)([CH2][Sn]([Cl])([CH2]C(C)(C)c1ccccc1)[O][Sn]([Cl])([CH2]C(C)(C)c1ccccc1)[CH2]C(C)(C)c1ccccc1)c1ccccc1`, which T/C (dose: 1.56 mg/kg/injection, schedule: Q01DX005 (ip), vehicle: Klucel (hydroxypropylcellulose) (HPC)) is on record?
Answer: 104 % of control and 97 % of control

Question: What about the T/C (dose: 3.12 mg/kg/injection, schedule: Q01DX005 (ip), vehicle: Klucel (hydroxypropylcellulose) (HPC)) of the same compound?
Answer: 99 % of control and 100 % of control and 109 % of control

Question: What about the T/C (dose: 6.25 mg/kg/injection, schedule: Q01DX005 (ip), vehicle: Klucel (hydroxypropylcellulose) (HPC)) of the same compound?
Answer: 100 % of control and 119 % of control and 96 % of control

Question: And the T/C (dose: 12.5 mg/kg/injection, schedule: Q01DX005 (ip), vehicle: Klucel (hydroxypropylcellulose) (HPC))?
Answer: 100 % of control and 106 % of control

Question: `O=C(CCl)N/N=C/c1ccccc1` was tested. Which T/C [4] did it give?
Answer: 106 % of control

Question: And the T/C [14]?
Answer: 97 % of control

Question: And the T/C [5]?
Answer: 107 % of control

Question: What about the T/C (dose: 100.0 mg/kg/injection, schedule: Q01DX009 (ip), vehicle: saline) of the same compound?
Answer: 95 % of control

Question: And the T/C [6]?
Answer: 111 % of control

Question: And the T/C [15]?
Answer: 96 % of control

Question: What does the source list for `O=C(OCC1N=C1c1ccccc1)c1ccc(Br)cc1` (stereo unspecified)?
Answer: T/C (dose: 100.0 mg/kg/injection, schedule: Q01DX001 (ip), vehicle: suspension in saline): 104 % of control; T/C (dose: 200.0 mg/kg/injection, schedule: Q01DX001 (ip), vehicle: suspension in saline): 99 % of control; T/C (dose: 400.0 mg/kg/injection, schedule: Q01DX001 (ip), vehicle: suspension in saline): 104 % of control

Question: Which T/C (dose: 100.0 mg/kg/injection, schedule: Q01DX001 (ip), vehicle: saline) does the source give for `COCc1cccc2ccnc(COC)c12` here?
Answer: 100 % of control

Question: And the T/C (dose: 200.0 mg/kg/injection, schedule: Q01DX001 (ip), vehicle: saline)?
Answer: 102 % of control

Question: And the T/C (dose: 400.0 mg/kg/injection, schedule: Q01DX001 (ip), vehicle: saline)?
Answer: 103 % of control

Question: Which T/C [1] does the source give for `CC1(C)OC2(C)CCC1C1C2N1C(=O)Nc1cccc(Cl)c1` (stereo unspecified) here?
Answer: 101 % of control

Question: What about the T/C [2] of the same compound?
Answer: 92 % of control

Question: What about the T/C [3] of the same compound?
Answer: 89 % of control

Question: For `c1ccc2[nH]c(CN(CCN(Cc3nc4ccccc4[nH]3)Cc3nc4ccccc4[nH]3)Cc3nc4ccccc4[nH]3)nc2c1`, which T/C (dose: 1.56 mg/kg/injection, schedule: Q01DX005 (ip), vehicle: DMSO) is on record?
Answer: 104 % of control

Question: And the T/C (dose: 3.12 mg/kg/injection, schedule: Q01DX005 (ip), vehicle: DMSO)?
Answer: 106 % of control

Question: And the T/C (dose: 6.25 mg/kg/injection, schedule: Q01DX005 (ip), vehicle: DMSO)?
Answer: 105 % of control

Question: What about the T/C (dose: 12.5 mg/kg/injection, schedule: Q01DX005 (ip), vehicle: DMSO) of the same compound?
Answer: 107 % of control

Question: What about the T/C (dose: 25.0 mg/kg/injection, schedule: Q01DX005 (ip), vehicle: DMSO) of the same compound?
Answer: 108 % of control

Question: Which results are given for `CCC(=O)N(C)[C@@H](C)C(=O)O[C@H]1CC(=O)N(C)c2cc(cc(OC)c2Cl)C/C(C)=C/C=C[C@@H](OC)[C@@]2(O)C[C@H](OC(=O)N2)[C@@H](C)[C@@H]2O[C@@]12C`?
Answer: T/C (dose: 0.1 micrograms/kg/injection, schedule: Q01DX009 (ip), vehicle: saline): 105 % of control; T/C (dose: 0.2 micrograms/kg/injection, schedule: Q01DX009 (ip), vehicle: saline): 123 % of control; T/C (dose: 3.1 micrograms/kg/injection, schedule: Q01DX009 (ip), vehicle: saline + alcohol): 160 % of control; T/C (dose: 3.1 micrograms/kg/injection, schedule: Q01DX009 (ip), vehicle: saline): 150 % of control; T/C (dose: 6.3 micrograms/kg/injection, schedule: Q01DX009 (ip), vehicle: saline + alcohol): 151 % of control; T/C (dose: 6.3 micrograms/kg/injection, schedule: Q01DX009 (ip), vehicle: saline): 161 % of control

Question: What does the source list for `COC(=O)c1nc2[nH]n(-c3ccccc3)c(=O)c2c(C(=O)OC)c1C(C)C(=O)c1ccccc1` (stereo unspecified)?
Answer: T/C [7]: 100 % of control; T/C [8]: 109 % of control; T/C [9]: 94 % of control

Question: Which results are given for `Nc1cccc(OCCOc2cccc(S(=O)(=O)F)c2)c1`?
Answer: T/C (dose: 50.0 mg/kg/injection, schedule: Q01DX001 (ip), vehicle: saline with Tween-80): 109 % of control; T/C (dose: 100.0 mg/kg/injection, schedule: Q01DX001 (ip), vehicle: saline with Tween-80): 100 % of control; T/C (dose: 200.0 mg/kg/injection, schedule: Q01DX001 (ip), vehicle: saline with Tween-80): 100 % of control

Question: What does the source list for `CCC1(CC2CCCN(C)C2)c2ccccc2Sc2ccccc21` (stereo unspecified)?
Answer: T/C (dose: 12.5 mg/kg/injection, schedule: Q01DX005 (ip), vehicle: saline): 98 % of control; T/C (dose: 25.0 mg/kg/injection, schedule: Q01DX005 (ip), vehicle: saline): 98 % of control; T/C [10]: 91 % of control

Question: What does the source list for `O=C1CN=C(c2ccccc2)c2cc(Cl)ccc2N1CC1CC1`?
Answer: T/C [11]: 100 % of control; T/C [12]: 94 % of control; T/C [13]: 101 % of control
